For orientation: mortality means the share of the test organisms that died.

The structures appear in SMILES notation. Bounds are passed on as bounds.

In assay [1] the test system is boll weevil (Anthonomus grandis). Briefly: Boll weevil microtiter plate diet test. In kind it is in vivo. As to conditions: 120 h, sprayed onto insect diet with eggs, egg and larval mortality after 5 days, read-out: mortality in comparison with untreated controls. On the procedure: B.9 Boll Weevil (Anthonomus grandis)
For evaluating control of boll weevil (Anthonomus grandis) the test unit consisted of 24-well-microtiter plates containing an insect diet and 20-30 A. grandis eggs. The compounds were formulated using a solution containing 75% v/v water and 25% v/v DMSO. Different concentrations of formulated compounds were sprayed onto the insect diet at 20 μl, using a custom built micro atomizer, at two replications. After application, microtiter plates were incubated at about 23±1° C. and about 50±5% relative humidity for 5 days. Egg and larval mortality was then visually assessed.

In assay [2] the test system is yellow fever mosquito (Aedes aegypti). Description: whole plant or invertebrate. In kind it is in vivo. As to conditions: 48 h, freshly hatched larvae in tap water, larval mortality after 2 days, read-out: mortality in comparison with untreated controls. As to the method: B.12 Yellow Fever Mosquito (Aedes aegypti)
For evaluating control of yellow fever mosquito (Aedes aegypti) the test unit consisted of 96-well-microtiter plates containing 200 μl of tap water per well and 5-15 freshly hatched A. aegypti larvae. The compounds or mixtures were formulated using a solution containing 75% water and 25% DMSO. Different concentrations of formulated compounds or mixtures were sprayed onto the insect diet at 2.5 μl, using a custom built micro atomizer, at two replications. After application, microtiter plates were incubated at 28±1° C., 80±5% relative humidity for 2 days. Larval mortality was then visually assessed.

For `C#Cc1ccc(CC(C#N)(C#N)c2ccc(C#N)cc2)cc1` [II-77, 2-(4-cyanophenyl)-2-[(4-ethynylphenyl)methyl]-propanedinitrile], the mortality at 2500 ppm in assay [1] and in assay [2] was not below 75% each time.

These data come from patent US10292388B2, “Malononitrile compounds for controlling animal pests” (BASF SE, priority 2012, dated 2019).
